Experimental data reported in patent US9056876B2, “Substituted 1H-pyrazolo[3′,4′,4,5]thieno[2,3-b]pyridin-3-amine analogs as positive allosteric modulators of the muscarinic acetylcholine receptor M4” (VANDERBILT UNIVERSITY, priority 2011, dated 2015).

Biological target: T1, mAChR M4 (UniProt P08173)
T1 construct: hM1 and hM4 cDNAs were purchased from Missouri S&T cDNA Resource
T1 sequence (P08173 1-479): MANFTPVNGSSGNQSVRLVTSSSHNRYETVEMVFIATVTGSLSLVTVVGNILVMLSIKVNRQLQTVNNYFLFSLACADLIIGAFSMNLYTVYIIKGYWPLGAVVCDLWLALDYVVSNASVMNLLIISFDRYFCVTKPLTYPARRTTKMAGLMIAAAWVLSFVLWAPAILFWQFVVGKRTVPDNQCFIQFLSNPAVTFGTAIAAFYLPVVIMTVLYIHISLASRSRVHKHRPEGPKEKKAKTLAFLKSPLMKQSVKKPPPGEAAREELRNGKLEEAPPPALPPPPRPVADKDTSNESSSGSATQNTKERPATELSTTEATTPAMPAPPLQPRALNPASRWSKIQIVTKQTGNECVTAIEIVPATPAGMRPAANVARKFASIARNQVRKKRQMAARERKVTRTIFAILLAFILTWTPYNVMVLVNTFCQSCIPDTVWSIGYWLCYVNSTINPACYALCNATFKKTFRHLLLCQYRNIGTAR
Assay: mAChR M4 cell-based functional assay (calcium mobilization, Fluo-4, FDSS)
Settings: for Emax (%)*: % ACh maximum at 30 μM; for pEC50: positive allosteric modulator activity, EC20 acetylcholine response; for pEC50 / EC50: CHO-K1 cells; for EC50: positive allosteric modulator activity: concentration-dependent increase in the EC20 acetylcholine response, >10 μM estimated for low potency (no plateau)
Summary of the method: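 CHO-K1 cells stably expressing hM4 or rM4 with chimeric Gqi5, loaded with Fluo-4 AM for 50 min at 37° C. Calcium read on FDSS 6000 over 300 s: compound added at 4 s, acetylcholine EC20 at 144 s and EC80 at 230 s. Agonist, PAM (EC20 increase) and antagonist (EC80 decrease) values fitted by four-parameter logistic.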

SMILES | Emax (%)* | pEC50 | EC50
Cc1cc(C)c2c(n1)sc1c(NCc3ccc(F)c(F)c3)nn(C)c12 [Compound 60, N-(3,4-difluorobenzyl)-1,6,8-trimethyl-1H-pyrazolo[3′,4′:4,5]thieno[2,3-b]pyridin-3-amine] | 63% | <5.00 | > 10000 nM
COc1ccc(CNc2nn(C)c3c2sc2nc(C)cc(C)c23)c(OC)c1 [Compound 61, N-(2,4-dimethoxybenzyl)-1,6,8-trimethyl-1H-pyrazolo[3′,4′:4,5]thieno[2,3-b]pyridin-3-amine] | 33% | 6.35 | 450 nM
Cc1ccnc2sc3c(NCc4ccncc4)nn(C)c3c12 [Compound 62, 1,8-dimethyl-N-(pyridin-4-ylmethyl)-1H-pyrazolo[3′,4′:4,5]thieno[2,3-b]pyridin-3-amine] | 74% | 6.19 | 640 nM
COc1ccc(CNc2nn(C)c3c2sc2nccc(C)c23)cc1 [Compound 63, N-(4-methoxybenzyl)-1,8-dimethyl-1H-pyrazolo[3′,4′:4,5]thieno[2,3-b]pyridin-3-amine] | 80% | 5.77 | 1700 nM
Cc1cc(C)c2c(n1)sc1c(NC3CCCC3)nn(C)c12 [Compound 64, N-cyclopentyl-1,6,8-trimethyl-1H-pyrazolo[3′,4′:4,5]thieno[2,3-b]pyridin-3-amine] | 83% | 6.85 | 140 nM
Cc1cc(C)c2c(n1)sc1c(NC3CCOCC3)nn(C)c12 [Compound 65, 1,6,8-trimethyl-N-(tetrahydro-2H-pyran-4-yl)-1H-pyrazolo[3′,4′:4,5]thieno[2,3-b]pyridin-3-amine] | 78% | 6.00 | 1000 nM
Cc1cc(C)c2c(n1)sc1c(NC3CCCCC3)nn(C)c12 [Compound 66, N-cyclohexyl-1,6,8-trimethyl-1H-pyrazolo[3′,4′:4,5]thieno[2,3-b]pyridin-3-amine] | 73% | 5.92 | 1200 nM
Cc1ccc2c(n1)sc1c(NCc3ccncc3)nn(C)c12 [Compound 67, 1,6-dimethyl-N-(pyridin-4-ylmethyl)-1H-pyrazolo[3′,4′:4,5]thieno[2,3-b]pyridin-3-amine] | 80% | 5.96 | 1100 nM
Cc1ccnc2sc3c(NCc4ccccc4)nn(C)c3c12 [Compound 68, N-benzyl-1,8-dimethyl-1H-pyrazolo[3′,4′:4,5]thieno[2,3-b]pyridin-3-amine] | 75% | 6.24 | 580 nM
Cc1ccnc2sc3c(NCC4CC4)nn(C)c3c12 [Compound 69, N-(cyclopropylmethyl)-1,8-dimethyl-1H-pyrazolo[3′,4′:4,5]thieno[2,3-b]pyridin-3-amine] | 77% | 5.89 | 1300 nM
Cc1ccc2c(n1)sc1c(NC(C)C)nn(C)c12 [Compound 70, N-isopropyl-1,6-dimethyl-1H-pyrazolo[3′,4′:4,5]thieno[2,3-b]pyridin-3-amine] | 62% | <5.00 | > 10000 nM
Cc1ccnc2sc3c(NCc4ccco4)nn(C)c3c12 [Compound 71, N-(furan-2-ylmethyl)-1,8-dimethyl-1H-pyrazolo[3′,4′:4,5]thieno[2,3-b]pyridin-3-amine] | 66% | 6.00 | 1000 nM
COc1ccc(CNc2n[nH]c3c2sc2nc(C)ccc23)cc1 [Compound 72, N-(4-methoxybenzyl)-6-methyl-1H-pyrazolo[3′,4′:4,5]thieno[2,3-b]pyridin-3-amine] | 59% | 5.74 | 1800 nM
Cc1cc(C)c2c(n1)sc1c(NC3CCSC3)nn(C)c12 (stereo not drawn) [Compound 73, 1,6,8-trimethyl-N-(tetrahydrothiophen-3-yl)-1H-pyrazolo[3′,4′:4,5]thieno[2,3-b]pyridin-3-amine] | 84% | 7.06 | 87 nM
Cc1cc(C)c2c(n1)sc1c(NC3CCN(C)CC3)nn(C)c12 [Compound 74, 1,6,8-trimethyl-N-(1-methylpiperidin-4-yl)-1H-pyrazolo[3′,4′:4,5]thieno[2,3-b]pyridin-3-amine] | 52% | 5.52 | 3000 nM
Cc1cc(C)c2c(n1)sc1c(NCc3ccc(S(C)(=O)=O)cc3)nn(C)c12 [Compound 75, 1,6,8-trimethyl-N-(4-(methylsulfonyl)benzyl)-1H-pyrazolo[3′,4′:4,5]thieno[2,3-b]pyridin-3-amine] | 73% | 6.60 | 250 nM
Cc1cc(C)c2c(n1)sc1c(NCc3cccnc3)nn(C)c12 [Compound 76, 1,6,8-trimethyl-N-(pyridin-3-ylmethyl)-1H-pyrazolo[3′,4′:4,5]thieno[2,3-b]pyridin-3-amine] | 68% | 6.66 | 220 nM
Cc1cc(C)c2c(n1)sc1c(NCc3ccccn3)nn(C)c12 [Compound 77, 1,6,8-trimethyl-N-(pyridin-2-ylmethyl)-1H-pyrazolo[3′,4′:4,5]thieno[2,3-b]pyridin-3-amine] | 55% | 6.27 | 540 nM
Cc1cc(C)c2c(n1)sc1c(NCc3ccc(C)o3)nn(C)c12 [Compound 78, 1,6,8-trimethyl-N-((5-methylfuran-2-yl)methyl)-1H-pyrazolo[3′,4′:4,5]thieno[2,3-b]pyridin-3-amine] | 84% | 7.05 | 90 nM
Cc1cc(C)c2c(n1)sc1c(NCc3ccc(Cl)o3)nn(C)c12 [Compound 79, N-((5-chlorofuran-2-yl)methyl)-1,6,8-trimethyl-1H-pyrazolo[3′,4′:4,5]thieno[2,3-b]pyridin-3-amine] | 80% | 6.51 | 310 nM
Cc1cc(C)c2c(n1)sc1c(NCc3ccsc3)nn(C)c12 [Compound 80, 1,6,8-trimethyl-N-(thiophen-3-ylmethyl)-1H-pyrazolo[3′,4′:4,5]thieno[2,3-b]pyridin-3-amine] | 71% | 7.21 | 62 nM
Cc1cc(C)c2c(n1)sc1c(NCc3ccoc3)nn(C)c12 [Compound 81, N-(furan-3-ylmethyl)-1,6,8-trimethyl-1H-pyrazolo[3′,4′:4,5]thieno[2,3-b]pyridin-3-amine] | 77% | 7.16 | 69 nM
Cc1cc(C)c2c(n1)sc1c(NCc3csc(C)n3)nn(C)c12 [Compound 82, 1,6,8-trimethyl-N-((2-methylthiazol-4-yl)methyl)-1H-pyrazolo[3′,4′:4,5]thieno[2,3-b]pyridin-3-amine] | 63% | 6.41 | 390 nM
Cc1cc(C)c2c(n1)sc1c(NCC3CCCO3)nn(C)c12 (stereo not drawn) [Compound 83, 1,6,8-trimethyl-N-((tetrahydrofuran-2-yl)methyl)-1H-pyrazolo[3′,4′:4,5]thieno[2,3-b]pyridin-3-amine] | 52% | 6.02 | 960 nM
Cc1cc(C)c2c(n1)sc1c(NCc3cccc4c3OCO4)nn(C)c12 [Compound 84, N-(benzo[d][1,3]dioxol-4-ylmethyl)-1,6,8-trimethyl-1H-pyrazolo[3′,4′:4,5]thieno[2,3-b]pyridin-3-amine] | 50% | 6.72 | 190 nM
Cc1cc(C)c2c(n1)sc1c(NCC3CCCN3C(=O)OC(C)(C)C)nn(C)c12 (stereo not drawn) [Compound 85, tert-butyl 2-(((1,6,8-trimethyl-1H-pyrazolo[3′,4′:4,5]thieno[2,3-b]pyridin-3-yl)amino)methyl)pyrrolidine-1-carboxylate] | 37% | 5.48 | 3300 nM
Cc1cc(C)c2c(n1)sc1c(NCC3CCCN3)nn(C)c12 (stereo not drawn) [Compound 86, 1,6,8-trimethyl-N-(pyrrolidin-2-ylmethyl)-1H-pyrazolo[3′,4′:4,5]thieno[2,3-b]pyridin-3-amine] | 40% | 5.96 | 1100 nM
Cc1cc(C)c2c(n1)sc1c(NCc3ccc4c(c3)OCCO4)nn(C)c12 [Compound 87, N-((2,3-dihydrobenzo[b][1,4]dioxin-6-yl)methyl)-1,6,8-trimethyl-1H-pyrazolo[3′,4′:4,5]thieno[2,3-b]pyridin-3-amine] | 66% | 6.80 | 160 nM
Cc1cc(C)c2c(n1)sc1c(NCc3ccc4[nH]ccc4c3)nn(C)c12 [Compound 88, N-((1H-indo1-5-yl)methyl)-1,6,8-trimethyl-1H-pyrazolo[3′,4′:4,5]thieno[2,3-b]pyridin-3-amine] | 67% | 5.89 | 1300 nM
Cc1cc(C)c2c(n1)sc1c(NCc3cc4ccccc4n3C)nn(C)c12 [Compound 89, 1,6,8-trimethyl-N-((1-methyl-1H-indo1-2-yl)methyl)-1H-pyrazolo[3′,4′:4,5]thieno[2,3-b]pyridin-3-amine] | 51% | <5.00 | > 10000 nM
